Results as given in patent publication US20080248574A1, “ANTAGONISTS OF THE INTERACTION OF MELANOMA INHIBITORY ACTIVITY (MIA) AND P66SHC” (University of Pittsburgh - Of the Commonwealth System of …, priority 2007, published 2008).
Ends that are not written are not given here.

Legend:
[1] = tested on: MIA-expressing HMB2 human metastatic melanoma cells; assay: Entry of FITC-labeled polypeptide into HMB2 cells (phase contrast and image capture); assay type: cell-based; settings: 10 μM FITC-labeled polypeptide, 2.5 hours after addition
Protocol: The ability of a polypeptide comprising SEQ ID NO: 4 to enter and sensitize MIA-expressing HMB2 human metastatic melanoma cells to oxidative stress-induced death was examined. Cells were treated with 10 μM FITC-labeled polypeptide, followed by phase contrast and image capture.

[2] = tested on: HMB2 melanoma cells; assay: H2O2-induced cell death in HMB2 cells, cell viability by MTT absorbance; assay type: cell-based, human; settings: 20 μM polypeptide; 50 μM H2O2 two hours later; viability after 24 hours; versus H2O2-treated cells in the absence of polypeptide; p<0.05; FIG. 1
Protocol: FIG. 1 is a graph showing the percentage of cell viability measured by MTT absorbance in HMB2 melanoma cells that were treated with a polypeptide comprising SEQ ID NO: 1 and SEQ ID NO: 2 (TAT-peptide) and H2O2.
To determine the effect of the administration of a polypeptide comprising SEQ ID NO: 1 on H2O2-induced cell death, HMB2 cells were administered 20 μM of the polypeptide. Two hours following the polypeptide administration, the cells were treated with 50 μM of H2O2. After 24 hours, the cell viability was quantified using MTT absorbance.

Substance	transduction of cells with the peptide [1]	sensitivity of H2O2-treated cells to H2O2-death (cell viability, MTT absorbance) [2]
polypeptide comprising SEQ ID NO: 4: Polypeptide comprising a BRR domain (HIV TAT), spacer and CH2 domain portion of p66shc; FITC-labeled in the test (YGRKKRRQRRGGGSLGPILPPLPGDDSPTTLCS; also: FITC label, position not given here)	the majority of the cells were transduced	
polypeptide comprising SEQ ID NO: 1: Polypeptide comprising residues 41-60 of the p66shc CH2 domain (SEQ ID NO: 1) and HIV TAT (SEQ ID NO: 2) (SLGPILPPLPGDDSPTTLCSYGRKKRRQRR)		significantly increased
